Assay results published in BindingDB's records for doi:10.1016/j.chembiol.2013.07.014 (University of Massachusetts, 2013).

Experiments:
Assay in all cases: HIV-1 protease inhibition assay
Conditions in all cases: pH 4.7; 25 °C
[1] = molecular target: T1, Gag-Pol polyprotein [484-582,Q491K,I497V,V499I,E519D,R541K,D544E,L547P,Q553K,A555V,G557S,I568V,L573M,L574M] (Human immunodeficiency virus, UniProt Q9QBY3, A555V/D544E/E519D/G557S/I497V/I568V/L547P/L573M/L574M/Q491K/Q553K/R541K/V499I)
T1 construct: 484-582
Protocol: (§1) The reaction mixture contained 2 µL of protease and 2 µL of inhibitor (or DMSO as a control) and was incubated for 20-30 min at room temperature prior to the substrate cleavage reaction. 150 µL of a 1 µM substrate were used in substrate buffer (0.1 M sodium acetate, 1 M sodium chloride, 1 mM EDTA, 1 MM DTT, 2% DMSO, and 1 mg/mL BSA with an adjusted pH of 4.7).

[2] = molecular target: T2, Gag-Pol polyprotein [484-582,Q491K,I497V,V499I,E519D,G532V,I538V,R541K,D544E,L547P,Q553K,V566A,L573M] (Human immunodeficiency virus, UniProt Q9QBY3, D544E/E519D/G532V/I497V/I538V/L547P/L573M/Q491K/Q553K/R541K/V499I/V566A)
T2 construct: 484-582
Protocol: as §1

[3] = molecular target: T3, Gag-Pol polyprotein [484-582,Q491K,I494L,I497V,V499I,E519D,I534V,R541K,D544E,Q553K,A555V,L573M] (Human immunodeficiency virus, UniProt Q9QBY3, A555V/D544E/E519D/I494L/I497V/I534V/L573M/Q491K/Q553K/R541K/V499I)
T3 construct: 484-582
Protocol: as §1

SMILES | Ki [1] [nM] | Ki [2] [nM] | Ki [3] [nM]
CC[C@H](C)CN(C[C@@H](O)[C@H](Cc1ccccc1)NC(=O)O[C@H]1CO[C@H]2OCC[C@H]21)S(=O)(=O)c1ccc(N)cc1 [(3R,3aS,6aR)-Hexahydrofuro[2,3-b]furan-3-yl ((2S,3R)-4-(4-amino-N-((S)-2-methylbutyl)phenylsulfonamido)-3-hydroxy-1-phenylbutan-2-yl)carbamate (10a)] | 0.013 | 0.016 | 0.006
CCC(CC)CN(C[C@@H](O)[C@H](Cc1ccccc1)NC(=O)O[C@H]1CO[C@H]2OCC[C@H]21)S(=O)(=O)c1ccc(N)cc1 [(3R,3aS,6aR)-Hexahydrofuro[2,3-b]furan-3-yl ((2S,3R)-4-(4-amino-N-(2-ethylbutyl)phenylsulfonamido)-3-hydroxy-1-phenylbutan-2-yl)carbamate (11a)] | 0.022 | 0.034 | 0.062
CCC(CC)CN(C[C@@H](O)[C@H](Cc1ccccc1)NC(=O)O[C@H]1CO[C@H]2OCC[C@H]21)S(=O)(=O)c1ccc2ncsc2c1 [(3R,3aS,6aR)-Hexahydrofuro[2,3-b]furan-3-yl ((2S,3R)-4-(N-(2-ethylbutyl)benzo[d]thiazole-6-sulfonamido)-3-hydroxy-1-phenylbutan-2-yl)carbamate (11e)] | 0.052 | 0.126 | 0.108
CC[C@H](C)CN(C[C@@H](O)[C@H](Cc1ccccc1)NC(=O)O[C@H]1CO[C@H]2OCC[C@H]21)S(=O)(=O)c1ccc(OC)cc1 [(3R,3aS,6aR)-Hexahydrofuro[2,3-b]furan-3-yl ((2S,3R)-3-hydroxy-4-(4-methoxy-N-((S)-2-methylbutyl)phenylsulfonamido)-1-phenylbutan-2-yl)carbamate (10b)] | 0.021 | 0.005 | 0.103
CCC(CC)CN(C[C@@H](O)[C@H](Cc1ccccc1)NC(=O)O[C@H]1CO[C@H]2OCC[C@H]21)S(=O)(=O)c1ccc(CO)cc1 [(3R,3aS,6aR)-Hexahydrofuro[2,3-b]furan-3-yl ((2S,3R)-4-(N-(2-ethylbutyl)-4-(hydroxymethyl)phenylsulfonamido)-3-hydroxy-1-phenylbutan-2-yl)carbamate (11c)] | 0.07 | 0.005 | 0.026
CC[C@H](C)CN(C[C@@H](O)[C@H](Cc1ccccc1)NC(=O)O[C@H]1CO[C@H]2OCC[C@H]21)S(=O)(=O)c1ccc(CO)cc1 [(3R,3aS,6aR)-Hexahydrofuro[2,3-b]furan-3-yl ((2S,3R)-3-hydroxy-4-(4-(hydroxymethyl)-N-((S)-2-methylbutyl)phenylsulfonamido)-1-phenylbutan-2-yl)carbamate (10c)] | 0.004 | 0.022 | 0.013
CCC(CC)CN(C[C@@H](O)[C@H](Cc1ccccc1)NC(=O)O[C@H]1CO[C@H]2OCC[C@H]21)S(=O)(=O)c1ccc2c(c1)OCO2 [(3R,3aS,6aR)-Hexahydrofuro[2,3-b]furan-3-yl ((2S,3R)-4-(N-(2-ethylbutyl)benzo[d][1,3]dioxole-5-sulfonamido)-3-hydroxy-1-phenylbutan-2-yl)carbamate (11d)] | 0.104 | 0.034 | 0.006
CC[C@H](C)CN(C[C@@H](O)[C@H](Cc1ccccc1)NC(=O)O[C@H]1CO[C@H]2OCC[C@H]21)S(=O)(=O)c1ccc2ncsc2c1 [(3R,3aS,6aR)-Hexahydrofuro[2,3-b]furan-3-yl ((2S,3R)-3-hydroxy-4-(N-((S)-2-methylbutyl)benzo[d]thiazole-6-sulfonamido)-1-phenylbutan-2-yl)carbamate (10e)] | 0.041 | 0.012 | 0.025
CC[C@H](C)CN(C[C@@H](O)[C@H](Cc1ccccc1)NC(=O)O[C@H]1CO[C@H]2OCC[C@H]21)S(=O)(=O)c1ccc2c(c1)OCO2 [(3R,3aS,6aR)-Hexahydrofuro[2,3-b]furan-3-yl ((2S,3R)-3-hydroxy-4-(N-((S)-2-methylbutyl)benzo[d][1,3]dioxole-5-sulfonamido)-1-phenylbutan-2-yl)carbamate (10d)] | 0.099 | 0.029 | 0.035
CCC(CC)CN(C[C@@H](O)[C@H](Cc1ccccc1)NC(=O)O[C@H]1CO[C@H]2OCC[C@H]21)S(=O)(=O)c1ccc(OC)cc1 [(3R,3aS,6aR)-Hexahydrofuro[2,3-b]furan-3-yl ((2S,3R)-4-(N-(2-ethylbutyl)-4-methoxyphenylsulfonamido)-3-hydroxy-1-phenylbutan-2-yl)carbamate (11b)] | 0.134 | 0.001 | 0.01
